The target of assay [1] is T1, Mitogen-activated protein kinase 14 (Homo sapiens, UniProt Q16539). Kind of assay: Ratio of SB203580 IC50 to compound IC50 for p38-alpha MAPK (unknown origin).
Assay [2] addresses T1, Mitogen-activated protein kinase 14. Nature of the assay: Inhibition of p38-alpha MAPK (unknown origin) after 3 hrs.

T1 sequence (Q16539 whole entry): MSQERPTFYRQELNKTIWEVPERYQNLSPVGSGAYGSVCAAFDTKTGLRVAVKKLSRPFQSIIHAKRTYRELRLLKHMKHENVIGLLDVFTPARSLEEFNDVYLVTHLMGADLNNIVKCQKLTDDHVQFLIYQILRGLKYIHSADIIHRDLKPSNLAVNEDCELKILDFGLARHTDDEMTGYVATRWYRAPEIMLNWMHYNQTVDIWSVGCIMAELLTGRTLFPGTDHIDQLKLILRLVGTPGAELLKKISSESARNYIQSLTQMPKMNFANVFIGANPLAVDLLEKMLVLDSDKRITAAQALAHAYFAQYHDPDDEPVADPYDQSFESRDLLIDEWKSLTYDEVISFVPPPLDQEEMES

On to `CSc1nc(-c2ccc(F)cc2)c(-c2ccnc(NC(=O)c3ccc(C)c(F)c3)c2)[nH]1`, for which the Ratio IC50 in assay [1] worked out at 1.93.
`O=C(Cc1ccc(F)cc1)Nc1cc(-c2c(-c3ccc(F)cc3)nc3n2CCS3)ccn1`: in assay [2], the midpoint of inhibition, the IC50, lay at 0.046 µM. Also, the Ratio IC50 in assay [1] is 1.93.
The matching figures for `O=C(Nc1cc(-c2c(-c3ccc(F)cc3)nc3n2CCS3)ccn1)c1ccccc1`: 0.083 µM and 0.89.
The matching figures for `Cc1ccc(C(=O)Nc2cc(-c3c(-c4ccc(F)cc4)nc4n3CCS4)ccn2)cc1F`: 0.029 µM and 0.96.
The compound `CSc1nc(-c2ccc(F)cc2)c(-c2ccnc(NC(=O)c3ccco3)c2)n1C` yielded an IC50 in assay [2] of 0.173 µM. For the same compound, the Ratio IC50 in assay [1] was 0.35.
The matching figures for `O=C(Nc1cc(-c2c(-c3ccc(F)cc3)nc3n2CCS3)ccn1)c1ccco1`: 0.14 µM and 0.63.
For the compound `CSc1nc(-c2ccc(F)cc2)c(-c2ccnc(NC(=O)C3CC3c3ccccc3)c2)n1C` (stereo not drawn), the IC50 in assay [2] amounted to 0.186 µM. For the same compound, the Ratio IC50 in assay [1] amounted to 0.22.
The matching figures for `CSc1nc(-c2ccc(F)cc2)c(-c2ccnc(NC(=O)c3ccc(C)c(F)c3)c2)n1C`: 0.411 µM and 0.1.
The corresponding values for `CSc1nc(-c2ccc(F)cc2)c(-c2ccnc(NC(=O)Cc3ccccc3)c2)[nH]1` are 0.022 µM and 1.23.
The matching figures for `CSc1nc(-c2ccc(F)cc2)c(-c2ccnc(NC(=O)c3ccc(F)cc3)c2)n1C`: 0.396 µM and 0.16.
As for `CSc1nc(-c2ccc(F)cc2)c(-c2ccnc(NC(=O)Cc3ccc(F)cc3)c2)[nH]1`, the Ratio IC50 in assay [1] worked out at 3.55.
Regarding `CSc1nc(-c2ccc(F)cc2)c(-c2ccnc(NC(=O)c3ccccc3)c2)n1C`, in assay [2], inhibition was half-maximal at 0.337 µM (IC50). Besides, in assay [1], the Ratio IC50 stood at 0.18.
In assay [2], `CSc1nc(-c2ccc(F)cc2)c(-c2ccnc(NC(=O)c3ccccc3)c2)[nH]1` returned an IC50 of 0.019 µM. The Ratio IC50 in assay [1] turned out to be 1.36.
The matching figures for `CSc1nc(-c2ccc(F)cc2)c(-c2ccnc(NC(=O)c3ccc(F)cc3)c2)[nH]1`: 0.044 µM and 0.61.
The matching figures for `CSc1nc(-c2ccc(F)cc2)c(-c2ccnc(NC(=O)C3CC3c3ccccc3)c2)[nH]1` (stereo not drawn): 0.02 µM and 1.85.
The corresponding values for `O=C(Cc1ccccc1)Nc1cc(-c2c(-c3ccc(F)cc3)nc3n2CCS3)ccn1` are 0.046 µM and 0.97.
Turning to `CSc1nc(-c2ccc(F)cc2)c(-c2ccnc(NC(=O)Cc3ccc(F)cc3)c2)n1C`, the Ratio IC50 in assay [1] was 0.24.
In assay [2], `O=C(Nc1cc(-c2c(-c3ccc(F)cc3)nc3n2CCS3)ccn1)C1CC1c1ccccc1` (stereo not drawn) showed an IC50 of 0.02 µM. Besides, the Ratio IC50 in assay [1] stood at 1.4.
For the compound `CSc1nc(-c2ccc(F)cc2)c(-c2ccnc(NC(=O)c3cc4ccccc4o3)c2)[nH]1`, the Ratio IC50 in assay [1] turned out to be 0.7.
Regarding `CSc1nc(-c2ccc(F)cc2)c(-c2ccnc(NC(=O)c3cc4ccccc4o3)c2)n1C`, the IC50 in assay [2] amounted to 0.43 µM. The Ratio IC50 in assay [1] was determined as 0.1.
`CSc1nc(-c2ccc(F)cc2)c(-c2ccnc(NC(=O)c3ccco3)c2)[nH]1`: in assay [1], the Ratio IC50 is 1.46.
`O=C(Nc1cc(-c2c(-c3ccc(F)cc3)nc3n2CCS3)ccn1)c1cc2ccccc2o1` registered an IC50 in assay [2] of 0.115 µM. Also, the Ratio IC50 in assay [1] amounted to 0.77.
The corresponding values for `CSc1nc(-c2ccc(F)cc2)c(-c2ccnc(NC(=O)Cc3ccccc3)c2)n1C` are 0.498 µM and 0.05.
The matching figures for `O=C(Nc1cc(-c2c(-c3ccc(F)cc3)nc3n2CCS3)ccn1)c1ccc(F)cc1`: 0.036 µM and 1.44.

Values taken from ChEMBL document CHEMBL3217565, “Conformational effects on potency of thioimidazoles and dihydrothiazolines” (Medchemcomm, 2011).
